Patent publication US7041699B2, “Nutrient pharmaceutical formulation comprising polyphenols and use in treatment of cancer” (Matthias Rath, priority 2002, dated 2006)

How the values were obtained:
[1] = tested on: human melanoma cell line A2058; assay: MTT cell proliferation/growth, melanoma cells
[2] = tested on: HCT116 human colon cancer cells; assay: Matrigel invasion and migration, HCT116; format: cell-based
Method: The studies were conducted using Matrigel (Becton Dickinson) inserts in compatible 24-well plates. Fibroblasts were seeded and grown in the wells of the plate using DMEM. When fibroblasts reached confluence, the medium was withdrawn and replaced with 750 μl of the media designated for the treatment. The cancer cells (5×10^4) suspended in 250 μl of the medium supplemented with nutrients as specified in the design of the experiment were seeded on the insert in the well. Thus both the medium on the insert and in the well contained the same supplements. […] After incubation, the media from the wells was withdrawn. The cells on the upper surface of the inserts were gently scrubbed away with cotton swab. The cells that had penetrated the Matrigel membrane and had migrated on the lower surface of the Matrigel were stained with hemacolor stain (EM Sciences) and were visually counted under the microscope. The results were subjected to ANOVA and all the possible pairs were tested for significance at p<0.05. […]
HTCT116 (ATCC) human colon cancer cells were seeded on Matrigel insert in an improved Matrigel Invasion Chamber (BD). […] The chamber was incubated for 24 hours and the cells that had invaded the Matrigel membrane and had migrated into the lower surface of the membrane were counted.

MMP-2 and MMP-9 = assay: Gelatinase zymography, melanoma cells; format: cell-based, human; conditions: overall / dose dependence
Method: Gelatinase zymography was performed in 10% Novex pre-cast polyacrylamide gel (Invitrogen) in the presence of 0.1% gelatin. Culture media (20 μl) was loaded and SDS-PAGE was performed with tris-glysine SDS buffer. After electrophoresis, the gels were washed with 5% Triton X-100 for 30 minutes and stained. Protein standards were run concurrently and approximate molecular weights were determined.
The effect of EGCG on melanoma cells with basal and ascorbic acid, proline, and lysine supplementation on expression of MMPs is depicted in FIG. 9 by gelatinase zymography. […] The intensity of bands for basal and ascorbic acid, lysine and proline combination were the same.

[3] = tested on: A2058 human melanoma cells; assay: Matrigel invasion and migration, melanoma cells; format: cell-based; conditions: conditioned media from NHDF, 24 hours
Method: The studies were conducted using Matrigel (Becton Dickinson) inserts in compatible 24-well plates. Fibroblasts were seeded and grown in the wells of the plate using DMEM. When fibroblasts reached confluence, the medium was withdrawn and replaced with 750 μl of the media designated for the treatment. The cancer cells (5×10^4) suspended in 250 μl of the medium supplemented with nutrients as specified in the design of the experiment were seeded on the insert in the well. Thus both the medium on the insert and in the well contained the same supplements. The plates with the inserts were then incubated (in air-circulating incubator for MDA-MB-231 cells and 5% CO2 incubator for colon cancer cells and melanoma cells) for 18–20 hours. After incubation, the media from the wells was withdrawn. The cells on the upper surface of the inserts were gently scrubbed away with cotton swab. The cells that had penetrated the Matrigel membrane and had migrated on the lower surface of the Matrigel were stained with hemacolor stain (EM Sciences) and were visually counted under the microscope. […]
A2058 (ATCC) human melanoma cells were seeded on Matrigel insert in improved Matrigel Invasion Chamber (BD). […] The chamber was incubated for 24 hours and the cells that had invaded the Matrigel membrane and had migrated into the lower surface of the membrane were counted.

[4] = tested on: human breast cancer cells MDA-MB-231; assay: MTT cell proliferation/growth, breast cancer MDA-MB-231
[5] = tested on: MDA-MB 231 human breast cancer cells; assay: Matrigel invasion and migration, MDA-MB-231
Method: The studies were conducted using Matrigel (Becton Dickinson) inserts in compatible 24-well plates. Fibroblasts were seeded and grown in the wells of the plate using DMEM. When fibroblasts reached confluence, the medium was withdrawn and replaced with 750 μl of the media designated for the treatment. The cancer cells (5×10^4) suspended in 250 μl of the medium supplemented with nutrients as specified in the design of the experiment were seeded on the insert in the well. Thus both the medium on the insert and in the well contained the same supplements. The plates with the inserts were then incubated (in air-circulating incubator for MDA-MB-231 cells and 5% CO2 incubator for colon cancer cells and melanoma cells) for 18–20 hours. After incubation, the media from the wells was withdrawn. The cells on the upper surface of the inserts were gently scrubbed away with cotton swab. The cells that had penetrated the Matrigel membrane and had migrated on the lower surface of the Matrigel were stained with hemacolor stain (EM Sciences) and were visually counted under the microscope. The results were subjected to ANOVA and all the possible pairs were tested for significance at p<0.05.
The media in different studies were supplemented with ascorbic acid, proline, lysine and EGCG at concentrations as indicated.
MDA-MB 231 (ATCC) breast cancer cells were seeded on Matrigel insert in an improved Matrigel Invasion Chamber (BD). Conditioned media from normal human dermal fibroblast (Clonetics) supplemented with various agents (as indicated on FIG. 1) were added to the well. The chamber was incubated for 24 hours and the cells that had invaded the Matrigel membrane and had migrated into the lower surface of the membrane were counted.

Structure (SMILES)	cell proliferation (cell number, Basal = 100) ([1]; EGCG 50 μg/ml)	cell proliferation (cell number, Basal = 100) ([1]; EGCG 10 and 20 μg/ml)	Matrigel invasion of colon cancer cells (reduced to) ([2]; EGCG 20 μg/ml)	Matrigel invasion and migration (FIG. 2) ([2]; conditioned media from NHDF, 24 hours)	expression of MMP-2 and MMP-9 (zymography bands) (MMP-2 and MMP-9)	Matrigel invasion and migration (FIG. 3) [3]	cell number compared to control ([4]; EGCG 50 μg/ml)	cell number compared to control ([4]; EGCG 100 μg/ml)	cell number compared to control ([4]; EGCG 200 μg/ml)	cell number compared to unsupplemented controls ([4]; EGCG up to 20 μg/ml)	Matrigel invasion and migration (FIG. 1) ([5]; MDA-MB 231, conditioned media from NHDF, 24 hours)	Matrigel invasion (number of invading cells) compared to non-supplemented media ([5]; MDA-MB-231, EGCG 20 μg/ml)	Matrigel invasion ([5]; MDA-MB-231, EGCG 50 μg/ml and 100 μg/ml)	invasion reduced by ([5]; MDA-MB-231, another series, 100 μM ascorbic acid, 140 μM proline)
O=C(O[C@@H]1Cc2c(O)cc(O)cc2O[C@@H]1c1cc(O)c(O)c(O)c1)c1cc(O)c(O)c(O)c1 [EGCG, (−)-epigallocatechin-3-gallate]	30%	Neither lysine, proline, and ascorbic acid nor EGCG at 10 and 20 μg/ml had any significant effect	44.9±3.3%	inhibitory effect	inhibitory effect on their expression in a dose dependent fashion	inhibitory effect	66.1±5.3%	33.6±2%	29.6±0.8%	did not have any significant inhibitory effect	inhibitory effect	69.5±27.4%	complete inhibition	
O=C1O[C@H]([C@@H](O)CO)C(O)=C1O [ascorbic acid]														36%
